Data: US20020036154A1, “Solid pharmaceutical dosage formulation of hydrophobic drugs” (priority 2000, published 2002)

Assay: Dissolution profiles of hydrocortisone (CCN90306A) Accudep Cores (paddles, 75 rpm, distilled water)
Format: physicochemical
Conditions: 1 mg CCN90306A, vs control core, 75 rpm paddles, n=3, FIG. 7
Description: Accudep™ Cores were made as follows: Control Accudep™ Core: Sealed a 1 mg deposition of CCN90306A between two polymer sheets with the following composition: 45% HPMC, 45% HPC, 10% PEG.

dissolution at 20- and 30-minute sample points (Polysorbate 80 incorporated in film Accudep Core (20%)): faster dissolution | dissolution at 20- and 30-minute sample points (SLS incorporated in film Accudep Core (20% SLS)): faster dissolution
Structure (SMILES): C[C@]12CCC(=O)C=C1CC[C@@H]1[C@@H]2[C@@H](O)C[C@@]2(C)[C@H]1CC[C@]2(O)C(=O)CO [CCN90306A, Hydrocortisone]
